# Reference: patent publication US20100003246A1, “Novel heterocyclic compounds and uses therof” (priority 2008, published 2010)
# Target: T1, b-Raf(V600E) (Homo sapiens, UniProt P15056, V600E)
# T1 construct: made in house
# Assay: Raf/Mek Amplified Luminescence Proximity Homogeneous Assay (Alpha Screen), b-Raf(V600E)
# Format: biochemical
# Settings: mutant b-Raf(V600E), read-out: mut-b-RAF (IC50 in uM)
# How it was run: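 Active b-Raf(V600E) (~4 pM) pre-incubated 60 min at room temperature with compound and kinase-dead biotinylated Mek (~10 nM) in Tris pH 7.5, MgCl2, BSA, DTT; ATP-started reaction ran 3 h, EDTA-stopped. Phospho-MEK detected by anti-p-MEK AlphaScreen luminescence; IC50 by non-linear regression.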
# T1 sequence (P15056 whole entry V600E): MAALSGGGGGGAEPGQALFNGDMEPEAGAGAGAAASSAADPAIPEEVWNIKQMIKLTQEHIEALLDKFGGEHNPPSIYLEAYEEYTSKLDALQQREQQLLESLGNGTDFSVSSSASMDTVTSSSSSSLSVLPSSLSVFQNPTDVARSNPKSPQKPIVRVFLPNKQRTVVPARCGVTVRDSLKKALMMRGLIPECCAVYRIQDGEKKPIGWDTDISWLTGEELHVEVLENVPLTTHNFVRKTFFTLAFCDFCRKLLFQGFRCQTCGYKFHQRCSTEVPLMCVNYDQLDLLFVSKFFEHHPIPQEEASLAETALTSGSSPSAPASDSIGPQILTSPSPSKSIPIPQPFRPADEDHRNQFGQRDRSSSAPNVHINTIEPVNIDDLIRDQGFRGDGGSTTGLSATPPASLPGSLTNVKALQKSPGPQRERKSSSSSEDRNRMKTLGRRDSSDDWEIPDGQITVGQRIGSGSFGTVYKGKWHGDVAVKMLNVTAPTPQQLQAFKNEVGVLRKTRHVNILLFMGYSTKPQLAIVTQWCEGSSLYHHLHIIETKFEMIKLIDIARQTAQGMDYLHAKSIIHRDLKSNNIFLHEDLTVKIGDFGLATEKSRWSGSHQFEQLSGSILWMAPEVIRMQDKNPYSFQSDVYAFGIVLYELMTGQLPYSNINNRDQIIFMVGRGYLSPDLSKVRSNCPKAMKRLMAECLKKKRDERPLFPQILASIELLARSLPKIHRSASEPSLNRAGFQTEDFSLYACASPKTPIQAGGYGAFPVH
row,SMILES,IC50 [µM]
1,"COc1cc(-c2[nH]c(-c3ccccc3C(F)(F)F)nc2-c2ccncc2)cnc1N [Compound 136, 3-methoxy-5-(4-(pyridin-4-yl)-2-(2-(trifluoromethyl)phenyl)-1H-imidazol-5-yl)pyridin-2-amine]",0.0028
2,"COc1cc(-c2nc(C(C)C)[nH]c2-c2ccncc2)cnc1N [Compound 140, 5-(2-isopropyl-5-(pyridin-4-yl)-1H-imidazol-4-yl)-3-methoxypyridin-2-amine]",0.0016
3,"Fc1ccc(-c2nc(-c3ccncc3)c(-c3ccc4nccn4c3)[nH]2)cc1 [Compound 141, 6-(2-(4-fluorophenyl)-4-(pyridin-4-yl)-1H-imidazol-5-yl)imidazo[1,2-a]pyridine]",0.618
4,"Fc1ccc(-c2nc(-c3ccncc3)c(-c3cnc4c(c3)OCCN4)[nH]2)cc1 [Compound 142, 7-(2-(4-fluorophenyl)-4-(pyridin-4-yl)-1H-imidazol-5-yl)-3,4-dihydro-2H-pyrido[3,2-v][1,4]oxazine]",0.382
5,"Nc1ncc(-c2[nH]c(-c3ccccc3)nc2-c2ccncc2)cc1O [Compound 143, 2-amino-5-(2-phenyl-4-(pyridin-4-yl)-1H-imidazol-5-yl)pyridin-3-ol]",0.215
6,"Fc1ccc(-c2nc(-c3ccncc3)c(-c3cnc4[nH]ccc4c3)[nH]2)cc1 [Compound 144, 5-(2-(4-fluorophenyl)-4-(pyridin-4-yl)-1H-imidazol-5-yl)-1H-pyrrolo[2,3-b]pyridine]",0.003
7,"Fc1ccc(-c2nc(-c3ccncc3)c(-c3ccnc4[nH]ccc34)[nH]2)cc1 [Compound 150, 4-(2-(4-fluorophenyl)-4-(pyridin-4-yl)-1H-imidazol-5-yl)-1H-pyrrolo[2,3-b]pyridine]",0.775

# Further lines, results first:
row,IC50 [µM],SMILES
1,0.0004,"COc1cc(-c2[nH]c(-c3ccccc3Cl)nc2-c2ccncc2)cnc1N [Compound 135, 5-(2-(2-chlorophenyl)-4-(pyridin-4-yl)-1H-imidazol-5-yl)-3-methoxypyridin-2-amine]"
2,0.0017,"COc1cc(-c2[nH]c(-c3ccccc3F)nc2-c2ccncc2)cnc1N [Compound 137, 5-(2-(2-fluorophenyl)-4-(pyridin-4-yl)-1H-imidazol-5-yl)-3-methoxypyridin-2-amine]"
3,0.0012,"COc1cc(-c2[nH]c(-c3ccccc3C)nc2-c2ccncc2)cnc1N [Compound 138, 3-methoxy-5-(4-(pyridin-4-yl)-2-o-tolyl-1H-imidazol-5-yl)pyridin-2-amine]"
4,0.0012,"COc1cc(-c2[nH]c(-c3cc(C)ccc3F)nc2-c2ccncc2)cnc1N [Compound 139, 5-(2-(2-fluoro-5-methylphenyl)-4-(pyridin-4-yl)-1H-imidazol-5-yl)-3-methoxypyridin-2-amine]"
5,0.0009,"COc1cc(-c2[nH]c(-c3ccc(C)cc3F)nc2-c2ccncc2)cnc1N [Compound 145, 5-(2-(2-fluoro-4-methylphenyl)-4-(pyridin-4-yl)-1H-imidazol-5-yl)-3-methoxypyridin-2-amine]"
6,0.0023,"COc1cc(-c2[nH]c(-c3ccc(Cl)cc3F)nc2-c2ccncc2)cnc1N [Compound 146, 5-(2-(4-chloro-2-fluorophenyl)-4-(pyridin-4-yl)-1H-imidazol-5-yl)-3-methoxypyridin-2-amine]"
7,0.0016,"COc1cc(-c2[nH]c(-c3ccc(F)cc3C)nc2-c2ccncc2)cnc1N [Compound 147, 5-(2-(4-fluoro-2-methylphenyl)-4-(pyridin-4-yl)-1H-imidazol-5-yl)-3-methoxypyridin-2-amine]"
8,0.0015,"COc1cc(-c2[nH]c(-c3ccc(F)c(C=O)c3)nc2-c2ccncc2)cnc1N [Compound 148, 5-(5-(6-amino-5-methoxypyridin-3-yl)-4-(pyridin-4-yl)-1H-imidazol-2-yl)-2-fluorobenzaldehyde]"
9,0.0006,"COc1cc(-c2[nH]c(-c3ccc(F)c(C)c3)nc2-c2ccncc2)cnc1N [Compound 149, 5-(2-(4-fluoro-3-methylphenyl)-4-(pyridin-4-yl)-1H-imidazol-5-yl)-3-methoxypyridin-2-amine]"
